Laboratory results reported in ChEMBL document CHEMBL1201862, “PubChem BioAssay data set” (2004).
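These data come from cells grown in 96-well plates and exposed to compound for 48 hours at five concentrations. At the GI50, growth is halved.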 The source made the active and inactive calls. No stated cut-off is given here; in the data, active = GI50 up to about 1.1 µM and inactive = higher.

What was measured:
Experiment in all cases: NCI-60 cell line screen, 48 h
A549 = system: A549
CCRF-CEM = system: CCRF-CEM
DU-145 = system: DU-145
HOP-92 = system: HOP-92
Hs-578T = system: Hs-578T
IGROV-1 = system: IGROV-1
MDA-MB-231 = system: MDA-MB-231
Malme-3M = system: Malme-3M
NCI-H226 = system: NCI-H226
NCI-H23 = system: NCI-H23
NCI-H460 = system: NCI-H460
OVCAR-3 = system: OVCAR-3
OVCAR-4 = system: OVCAR-4
SF-295 = system: SF-295
SK-MEL-28 = system: SK-MEL-28
SK-MEL-2 = system: SK-MEL-2
SNB-19 = system: SNB-19
SW-620 = system: SW-620
TK-10 = system: TK-10
U-251 = system: U-251

Measured: GI50

C=C1C(=O)O[C@@H]2C[C@@]3(C)CCC[C@H](C)C3=C[C@H]12 [HELENINE]
inactive: A549 16.1 µM | CCRF-CEM 1.52 µM | DU-145 12 µM | HOP-92 2.43 µM | Hs-578T 4.99 µM | IGROV-1 16.1 µM | MDA-MB-231 14.2 µM | Malme-3M 3.95 µM | NCI-H226 15.7 µM | NCI-H23 4.94 µM | NCI-H460 17 µM | OVCAR-3 6.89 µM | OVCAR-4 4.49 µM | SF-295 17.5 µM | SK-MEL-28 8 µM | SK-MEL-2 3.24 µM | SNB-19 16.5 µM | SW-620 3.83 µM | TK-10 2.77 µM | U-251 9.86 µM

CC(C)(C)OC(=O)N1CCc2c(n(C/C=C/c3ccccc3)[nH]c2=O)C1
inactive: A549 > 100 µM | CCRF-CEM 72.3 µM | DU-145 > 87.9 µM | HOP-92 > 53.5 µM | Hs-578T > 100 µM | IGROV-1 > 100 µM | MDA-MB-231 > 100 µM | Malme-3M > 75.2 µM | NCI-H226 > 100 µM | NCI-H23 > 100 µM | NCI-H460 > 100 µM | OVCAR-3 > 100 µM | OVCAR-4 97.1 µM | SF-295 > 100 µM | SK-MEL-28 > 100 µM | SK-MEL-2 > 100 µM | SNB-19 > 100 µM | SW-620 > 100 µM | TK-10 > 81.3 µM | U-251 > 100 µM

CCSCCCCC(c1ccc(O)cc1)C(C)(CC)c1ccc(O)cc1 (configuration not stated)
inactive: A549 25.4 µM | CCRF-CEM 18.6 µM | DU-145 > 100 µM | HOP-92 19.3 µM | Hs-578T 23.6 µM | IGROV-1 16.9 µM | MDA-MB-231 21.7 µM | Malme-3M 20.3 µM | NCI-H226 17.9 µM | NCI-H23 19.6 µM | NCI-H460 30.1 µM | OVCAR-3 18.2 µM | OVCAR-4 21.7 µM | SF-295 31.3 µM | SK-MEL-28 18 µM | SK-MEL-2 16 µM | SNB-19 24.5 µM | SW-620 21.4 µM | TK-10 17.4 µM | U-251 16.4 µM

CC(O)C1(CNc2cc(Cl)nc(N)n2)CCC1 (configuration not stated)
inactive: A549 > 100 µM | CCRF-CEM > 100 µM | DU-145 > 100 µM | HOP-92 > 100 µM | Hs-578T > 100 µM | IGROV-1 > 100 µM | MDA-MB-231 > 100 µM | Malme-3M > 100 µM | NCI-H226 > 100 µM | NCI-H23 > 100 µM | NCI-H460 > 100 µM | OVCAR-3 > 100 µM | OVCAR-4 > 100 µM | SF-295 > 100 µM | SK-MEL-28 > 100 µM | SK-MEL-2 > 100 µM | SNB-19 > 100 µM | SW-620 > 100 µM | TK-10 > 100 µM | U-251 > 100 µM

O=c1cnn(C2OC(C(O)CO)C(O)C2O)c(=O)[nH]1 (configuration not stated)
inactive: A549 > 100 µM | CCRF-CEM > 100 µM | DU-145 > 100 µM | HOP-92 > 100 µM | Hs-578T > 100 µM | IGROV-1 > 100 µM | MDA-MB-231 > 100 µM | Malme-3M > 100 µM | NCI-H226 > 100 µM | NCI-H23 > 100 µM | NCI-H460 > 100 µM | OVCAR-3 > 100 µM | OVCAR-4 > 100 µM | SK-MEL-28 > 100 µM | SK-MEL-2 > 100 µM | SNB-19 > 100 µM | SW-620 > 100 µM | TK-10 > 100 µM | U-251 > 100 µM

COc1ccc(C2(c3ccc(OC)cc3)OC(=O)c3cccc4cccc2c34)cc1
inactive: A549 8.11 µM | CCRF-CEM 3.18 µM | DU-145 > 100 µM | HOP-92 > 100 µM | Hs-578T 9.51 µM | IGROV-1 5.93 µM | MDA-MB-231 > 100 µM | Malme-3M 5.37 µM | NCI-H226 27.6 µM | NCI-H23 12.6 µM | NCI-H460 4.69 µM | OVCAR-3 4.81 µM | OVCAR-4 4.85 µM | SF-295 3.97 µM | SK-MEL-2 8 µM | SNB-19 94 µM | SW-620 5.18 µM | TK-10 5.94 µM | U-251 4.38 µM

NCc1ccccc1.O=C(O)NCc1ccccc1
inactive: A549 34.9 µM | CCRF-CEM 19.4 µM | DU-145 42.8 µM | HOP-92 19.6 µM | Hs-578T 26.1 µM | IGROV-1 26.1 µM | MDA-MB-231 10.3 µM | Malme-3M 27.4 µM | NCI-H226 30.1 µM | NCI-H23 27.5 µM | NCI-H460 26.5 µM | OVCAR-3 31.4 µM | OVCAR-4 25.1 µM | SF-295 31.2 µM | SK-MEL-28 38.2 µM | SK-MEL-2 8.91 µM | SNB-19 40.3 µM | SW-620 34.8 µM | TK-10 31.4 µM | U-251 26.9 µM

COC(=O)C1(CCC(=O)N(C)c2ccccc2)NNC2C(=O)N(c3ccccc3)C(=O)C21 (configuration not stated)
inactive: A549 > 10 µM | CCRF-CEM > 10 µM | DU-145 > 10 µM | HOP-92 > 10 µM | Hs-578T > 10 µM | IGROV-1 > 10 µM | MDA-MB-231 > 10 µM | Malme-3M > 10 µM | NCI-H226 > 10 µM | NCI-H23 > 10 µM | NCI-H460 > 10 µM | OVCAR-3 > 10 µM | OVCAR-4 > 10 µM | SF-295 > 10 µM | SK-MEL-28 > 10 µM | SK-MEL-2 > 10 µM | SNB-19 > 10 µM | SW-620 > 10 µM | TK-10 > 10 µM | U-251 > 10 µM

O=C1/C(=C2/C(=O)N(c3ccccc3)c3ccccc32)Nc2ccccc21
inactive: A549 37.2 µM | CCRF-CEM 92.3 µM | DU-145 27 µM | HOP-92 25.9 µM | Hs-578T 58.2 µM | IGROV-1 19.8 µM | MDA-MB-231 18.9 µM | Malme-3M 73.1 µM | NCI-H226 27.9 µM | NCI-H23 63.5 µM | NCI-H460 46.2 µM | OVCAR-3 52 µM | OVCAR-4 25.5 µM | SF-295 48.4 µM | SK-MEL-28 > 100 µM | SK-MEL-2 35.5 µM | SNB-19 29.6 µM | SW-620 63.1 µM | TK-10 27 µM | U-251 31.8 µM

CCOc1ccc2nc(NC(NC(=O)c3cccnc3)(C(F)(F)F)C(F)(F)F)sc2c1
inactive: A549 31.4 µM | CCRF-CEM 17.1 µM | DU-145 35.7 µM | HOP-92 20.5 µM | Hs-578T > 100 µM | MDA-MB-231 66.1 µM | Malme-3M 51.1 µM | NCI-H226 44 µM | NCI-H23 22.8 µM | NCI-H460 28.6 µM | OVCAR-3 32.6 µM | OVCAR-4 24 µM | SF-295 42 µM | SK-MEL-28 35.2 µM | SK-MEL-2 38.5 µM | SNB-19 51.9 µM | SW-620 46.1 µM | TK-10 33.9 µM | U-251 42.5 µM
